In the supplement of paper PMC10307832:

Experiments:
Assay in all cases: relative viability (nuclei count vs DMSO), 5 days (fraction); higher = more cells survive
[1] = tested on: SW 1573
How it was run: (§1)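 Dosing by pin tool came one day after lung cancer cell lines were seeded in 1536-well plates, using either one drug or a fixed anchor-drug dose plus five library-drug doses (not always all listed) in √10 steps. After 5 days, nuclei were counted on 4× images. Relative viability is treated-well nuclei count divided by vehicle-well nuclei count, and values are medians of duplicate plates.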

[2] = tested on: NCI-H1755
How it was run: as §1

[3] = tested on: A-427
How it was run: as §1

[4] = tested on: NCI-H1792
How it was run: as §1

[5] = tested on: NCI-H1915
How it was run: as §1

[6] = tested on: NCI-H1355
How it was run: as §1

[7] = tested on: NCI-H727
How it was run: as §1

[8] = tested on: NCI-H2228
How it was run: as §1

[9] = tested on: HCC-827
How it was run: as §1

[10] = tested on: SK-LU-1
How it was run: as §1

[11] = tested on: NCI-H23
How it was run: as §1

[12] = tested on: NCI-H1395
How it was run: as §1

[13] = tested on: HARA
How it was run: as §1

[14] = tested on: NCI-H2009
How it was run: as §1

[15] = tested on: COR-L 105
How it was run: as §1

[16] = tested on: CAL-12T
How it was run: as §1

[17] = tested on: NCI-H1437
How it was run: as §1

[18] = tested on: LCLC-103H
How it was run: as §1

[19] = tested on: NCI-H460
How it was run: as §1

[20] = tested on: HOP-62
How it was run: as §1

[21] = tested on: EMC-BAC-2
How it was run: as §1

[22] = tested on: HCC-366
How it was run: as §1

[23] = tested on: NCI-H1975
How it was run: as §1

Work on `Clc1ccc(Nc2nnc(Cc3ccncc3)c3ccccc23)cc1` [Vatalanib] + Cc1nc(NC(=O)N2CCC[C@H]2C(N)=O)sc1-c1ccnc(C(C)(C)C(F)(F)F)c1 [Alpelisib] (partner 2 µM) yielded a relative viability ([1]; first compound 0.04 µM) of 0.75, a relative viability ([1]; first compound 0.1265 µM) of 0.598 and a relative viability ([1]; first compound 0.4 µM) of 0.749. For the same compound, the relative viability ([1]; first compound 1.265 µM) was 0.79, the relative viability ([1]; first compound 4 µM) was 0.667 and the relative viability ([2]; first compound 0.04 µM) was 0.946. It also gave a relative viability ([2]; first compound 0.1265 µM) of 0.895, a relative viability ([2]; first compound 0.4 µM) of 0.977 and a relative viability ([2]; first compound 1.265 µM) of 0.857. For the same compound, the relative viability ([2]; first compound 4 µM) was 0.906, the relative viability ([3]; first compound 0.04 µM) was 0.988 and the relative viability ([3]; first compound 0.1265 µM) was 1.06. The relative viability ([3]; first compound 0.4 µM) was 1.13, the relative viability ([3]; first compound 1.265 µM) was 1.11 and the relative viability ([3]; first compound 4 µM) was 1.08. It also gave a relative viability ([4]; first compound 0.04 µM) of 0.669, a relative viability ([4]; first compound 0.1265 µM) of 0.741 and a relative viability ([4]; first compound 0.4 µM) of 0.639. For the same compound, the relative viability ([4]; first compound 1.265 µM) was 0.677, the relative viability ([4]; first compound 4 µM) was 0.73 and the relative viability ([5]; first compound 0.04 µM) was 1.03. The relative viability ([5]; first compound 0.1265 µM) was 1.05, the relative viability ([5]; first compound 0.4 µM) was 1.06 and the relative viability ([5]; first compound 1.265 µM) was 1.04. It also gave a relative viability ([5]; first compound 4 µM) of 1.1, a relative viability ([6]; first compound 0.04 µM) of 0.821 and a relative viability ([6]; first compound 0.1265 µM) of 0.747. For the same compound, the relative viability ([6]; first compound 0.4 µM) was 0.87, the relative viability ([6]; first compound 1.265 µM) was 0.691 and the relative viability ([6]; first compound 4 µM) was 0.711. The relative viability ([7]; first compound 0.04 µM) was 0.463, the relative viability ([7]; first compound 0.1265 µM) was 0.528 and the relative viability ([7]; first compound 0.4 µM) was 0.666. It also gave a relative viability ([7]; first compound 1.265 µM) of 0.397, a relative viability ([7]; first compound 4 µM) of 0.566 and a relative viability ([8]; first compound 0.04 µM) of 0.691. For the same compound, the relative viability ([8]; first compound 0.1265 µM) was 0.728, the relative viability ([8]; first compound 0.4 µM) was 0.867 and the relative viability ([8]; first compound 1.265 µM) was 0.713. It also gave a relative viability ([8]; first compound 4 µM) of 0.637, a relative viability ([9]; first compound 0.04 µM) of 0.991 and a relative viability ([9]; first compound 0.1265 µM) of 1.01. For the same compound, the relative viability ([9]; first compound 0.4 µM) was 0.828, the relative viability ([9]; first compound 1.265 µM) was 1 and the relative viability ([9]; first compound 4 µM) was 0.786. The relative viability ([10]; first compound 0.04 µM) was 1.09, the relative viability ([10]; first compound 0.1265 µM) was 0.983 and the relative viability ([10]; first compound 0.4 µM) was 1.31. For the same compound, the relative viability ([10]; first compound 1.265 µM) was 1.02, the relative viability ([10]; first compound 4 µM) was 1.04 and the relative viability ([11]; first compound 0.04 µM) was 0.649. For the same compound, the relative viability ([11]; first compound 0.1265 µM) was 0.672, the relative viability ([11]; first compound 0.4 µM) was 0.78 and the relative viability ([11]; first compound 1.265 µM) was 0.775. For the same compound, the relative viability ([11]; first compound 4 µM) was 0.75, the relative viability ([12]; first compound 0.04 µM) was 1.08 and the relative viability ([12]; first compound 0.1265 µM) was 1.04. For the same compound, the relative viability ([12]; first compound 0.4 µM) was 1.19, the relative viability ([12]; first compound 1.265 µM) was 1.08 and the relative viability ([12]; first compound 4 µM) was 0.971. For the same compound, the relative viability ([13]; first compound 0.04 µM) was 0.738, the relative viability ([13]; first compound 0.1265 µM) was 0.869 and the relative viability ([13]; first compound 0.4 µM) was 0.761. It also gave a relative viability ([13]; first compound 1.265 µM) of 0.831, a relative viability ([13]; first compound 4 µM) of 0.808 and a relative viability ([14]; first compound 0.04 µM) of 1.14. The relative viability ([14]; first compound 0.1265 µM) was 1.07, the relative viability ([14]; first compound 0.4 µM) was 1.2 and the relative viability ([14]; first compound 1.265 µM) was 1.13. The relative viability ([14]; first compound 4 µM) was 1.22, the relative viability ([15]; first compound 0.04 µM) was 0.994 and the relative viability ([15]; first compound 0.1265 µM) was 0.994. For the same compound, the relative viability ([15]; first compound 0.4 µM) was 1.15, the relative viability ([15]; first compound 1.265 µM) was 1.12 and the relative viability ([15]; first compound 4 µM) was 1.04. It also gave a relative viability ([16]; first compound 0.04 µM) of 1.05, a relative viability ([16]; first compound 0.1265 µM) of 1.26 and a relative viability ([16]; first compound 0.4 µM) of 1.44. For the same compound, the relative viability ([16]; first compound 1.265 µM) was 0.987, the relative viability ([16]; first compound 4 µM) was 1.22 and the relative viability ([17]; first compound 0.04 µM) was 0.975. The relative viability ([17]; first compound 0.1265 µM) was 1, the relative viability ([17]; first compound 0.4 µM) was 0.997 and the relative viability ([17]; first compound 1.265 µM) was 1.04. It also gave a relative viability ([17]; first compound 4 µM) of 0.991, a relative viability ([18]; first compound 0.04 µM) of 0.987 and a relative viability ([18]; first compound 0.1265 µM) of 0.923. The relative viability ([18]; first compound 0.4 µM) was 1.02, the relative viability ([18]; first compound 1.265 µM) was 0.954 and the relative viability ([18]; first compound 4 µM) was 0.96. For the same compound, the relative viability ([19]; first compound 0.04 µM) was 0.512, the relative viability ([19]; first compound 0.1265 µM) was 0.392 and the relative viability ([19]; first compound 0.4 µM) was 0.654. It also gave a relative viability ([19]; first compound 1.265 µM) of 0.467, a relative viability ([19]; first compound 4 µM) of 0.441 and a relative viability ([20]; first compound 0.04 µM) of 0.981. For the same compound, the relative viability ([20]; first compound 0.4 µM) was 1.07, the relative viability ([20]; first compound 1.265 µM) was 1.12 and the relative viability ([20]; first compound 4 µM) was 0.855. For the same compound, the relative viability ([21]; first compound 0.04 µM) was 0.714, the relative viability ([21]; first compound 0.1265 µM) was 0.714 and the relative viability ([21]; first compound 0.4 µM) was 0.72. The relative viability ([21]; first compound 1.265 µM) was 0.74, the relative viability ([21]; first compound 4 µM) was 0.729 and the relative viability ([22]; first compound 0.04 µM) was 0.388. The relative viability ([22]; first compound 0.1265 µM) was 0.346, the relative viability ([22]; first compound 0.4 µM) was 0.461 and the relative viability ([22]; first compound 1.265 µM) was 0.33. For the same compound, the relative viability ([22]; first compound 4 µM) was 0.396, the relative viability ([23]; first compound 0.04 µM) was 0.618 and the relative viability ([23]; first compound 0.1265 µM) was 0.62. For the same compound, the relative viability ([23]; first compound 0.4 µM) was 0.627, the relative viability ([23]; first compound 1.265 µM) was 0.553 and the relative viability ([23]; first compound 4 µM) was 0.519.
